The target in test [1] is T1, CYP125A13 (Streptomyces peucetius, UniProt Q70AR4).
T1 construct: gene cyp0266
T1 sequence (Q70AR4 1-413): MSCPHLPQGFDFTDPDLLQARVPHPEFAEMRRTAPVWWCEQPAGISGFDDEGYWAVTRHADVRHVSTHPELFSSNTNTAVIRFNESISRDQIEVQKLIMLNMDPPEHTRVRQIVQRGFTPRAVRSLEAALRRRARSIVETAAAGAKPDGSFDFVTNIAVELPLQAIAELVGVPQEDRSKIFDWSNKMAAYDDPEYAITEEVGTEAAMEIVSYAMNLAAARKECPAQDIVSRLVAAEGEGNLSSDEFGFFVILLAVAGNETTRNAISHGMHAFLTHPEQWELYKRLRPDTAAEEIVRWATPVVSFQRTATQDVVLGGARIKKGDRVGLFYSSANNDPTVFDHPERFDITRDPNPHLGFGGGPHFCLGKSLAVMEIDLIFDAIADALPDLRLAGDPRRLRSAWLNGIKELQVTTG
Description: UV-Vis spectral titration (type I shift), tight-binding quadratic fit; no product formation detected.

For test [2], the target named is T1, CYP125A13. Description: UV-Vis spectral titration (type I shift), tight-binding quadratic fit; also turnover to 27-hydroxycholesterol with PDX/PDR (Km […]).

Regarding `CC(C)CCC[C@@H](C)[C@H]1CC[C@H]2[C@@H]3CCC4=CC(=O)CC[C@]4(C)[C@H]3CC[C@]12C` [4-cholesten-3-one], the Kd at CYP125A13 [1] was found to be 59.2 ± 3.9 µM.
On to `CC(C)CCC[C@@H](C)[C@H]1CC[C@H]2[C@@H]3CC=C4C[C@@H](O)CC[C@]4(C)[C@H]3CC[C@]12C` [cholesterol], for which the Kd at CYP125A13 [2] came to 56.9 ± 11.3 µM.

Usually Kd stands for a measure of binding affinity in units of concentration.

The values are drawn from PMC9728343, “Characterization of CYP125A13, the First Steroid C-27 Monooxygenase from Streptomyces peucetius ATCC27952” (Journal of Microbiology and Biotechnology, 2020).
